This is an account of results in article PMC8863579, “Effects of pharmacological inhibition of the sodium‐dependent phosphate cotransporter 2b (NPT2b) on intestinal phosphate absorption in mouse and rat models” (Pharmacology Research & Perspectives, 2022).

A value given as a limit tells only on which side of the number the result lay.

One assay concerns the target T1, mouse NPT2b (Mus musculus, UniProt Q9DBP0).
T1 construct: Full-Length cDNA Cloning and Generation of Cell Lines Over-Expressing Human, Mouse, and Rat NPT2b; host or cells: CHO-K1 / T-REx CHO, pcDNA5/TO, tetracycline-induced
T1 sequence (Q9DBP0 1-697): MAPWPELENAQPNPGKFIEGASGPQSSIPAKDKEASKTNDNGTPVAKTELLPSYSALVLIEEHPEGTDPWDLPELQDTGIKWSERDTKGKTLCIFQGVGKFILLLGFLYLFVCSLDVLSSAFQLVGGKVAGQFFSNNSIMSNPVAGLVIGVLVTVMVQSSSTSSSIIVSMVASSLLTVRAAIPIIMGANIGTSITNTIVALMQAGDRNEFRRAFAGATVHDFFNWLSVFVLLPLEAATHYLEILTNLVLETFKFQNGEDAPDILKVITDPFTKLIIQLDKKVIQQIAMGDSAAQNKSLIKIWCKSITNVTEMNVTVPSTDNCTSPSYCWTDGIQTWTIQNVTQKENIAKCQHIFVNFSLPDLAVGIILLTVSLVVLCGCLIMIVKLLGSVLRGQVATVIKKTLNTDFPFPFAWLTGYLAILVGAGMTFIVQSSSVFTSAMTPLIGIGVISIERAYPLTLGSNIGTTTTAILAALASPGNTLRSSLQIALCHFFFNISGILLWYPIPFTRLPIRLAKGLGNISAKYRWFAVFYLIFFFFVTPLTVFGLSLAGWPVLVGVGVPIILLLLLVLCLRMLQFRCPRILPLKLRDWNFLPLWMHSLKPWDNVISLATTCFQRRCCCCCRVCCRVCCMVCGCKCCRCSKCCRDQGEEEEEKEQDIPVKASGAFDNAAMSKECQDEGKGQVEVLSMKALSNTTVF
The assay is described as follows: 33P-phosphate uptake in CHO cells expressing mouse NPT2b. The note with it: geometric mean; 2.5 µM phosphate, 60 min, room temperature. Type of assay: cell-based. The method, then: (§1) T‐Rex™ Chinese Hamster Ovary cells (CHO; Thermo Fisher Scientific) stably expressing human, mouse, or rat NPT2b under a tetracycline‐inducible promoter were generated using standard cDNA transfection and clone selection procedures (see Supporting Information). Cells were plated in 96‐well CytoStar‐T® scintillating microplates and were incubated overnight in growth media plus 100 ng/ml of tetracycline to induce expression of NPT2b. The next day, cells were washed 3 times with 200 µl assay buffer (137 mM NaCl, 5.4 mM KCl, 2.8 mM CaCl2, 1.2 mM MgSO4, and 14 mM Tris‐HCl buffer, pH 7.5). LY3358966 serially diluted 1‐to‐3 in DMSO was added to cells with assay buffer. An equal volume of H3 ^33PO4 (PerkinElmer) in assay buffer supplemented with 5 µM potassium phosphate was then added to initiate radiolabeled phosphate (^33P‐phosphate) uptake. The final phosphate concentration was 2.5 µM and the final DMSO concentration was 1%. Following a 60‐min incubation at room temperature, an equal volume of assay buffer containing 400 µM phloretin was added to stop ^33P‐phosphate uptake. The plate was immediately read on a Wallac MicroBeta Trilux liquid scintillation counter. Percent inhibition at all concentrations tested was calculated, and IC50 values were then determined using a 4‐parameter logistic curve fitting equation.
The vendors for target cDNA are listed in supplemental Table 1. […]

Another assay concerns the target T2, Human PiT2 (Homo sapiens, UniProt Q08357).
T2 construct: Full Length cDNA Cloning and Generation of Cell Lines Over-Expressing Human NPT2a, NPT2c, Pit1, and Pit2; host or cells: CHO-K1, pcDNA3.1(+), constitutive
T2 sequence (Q08357 1-652): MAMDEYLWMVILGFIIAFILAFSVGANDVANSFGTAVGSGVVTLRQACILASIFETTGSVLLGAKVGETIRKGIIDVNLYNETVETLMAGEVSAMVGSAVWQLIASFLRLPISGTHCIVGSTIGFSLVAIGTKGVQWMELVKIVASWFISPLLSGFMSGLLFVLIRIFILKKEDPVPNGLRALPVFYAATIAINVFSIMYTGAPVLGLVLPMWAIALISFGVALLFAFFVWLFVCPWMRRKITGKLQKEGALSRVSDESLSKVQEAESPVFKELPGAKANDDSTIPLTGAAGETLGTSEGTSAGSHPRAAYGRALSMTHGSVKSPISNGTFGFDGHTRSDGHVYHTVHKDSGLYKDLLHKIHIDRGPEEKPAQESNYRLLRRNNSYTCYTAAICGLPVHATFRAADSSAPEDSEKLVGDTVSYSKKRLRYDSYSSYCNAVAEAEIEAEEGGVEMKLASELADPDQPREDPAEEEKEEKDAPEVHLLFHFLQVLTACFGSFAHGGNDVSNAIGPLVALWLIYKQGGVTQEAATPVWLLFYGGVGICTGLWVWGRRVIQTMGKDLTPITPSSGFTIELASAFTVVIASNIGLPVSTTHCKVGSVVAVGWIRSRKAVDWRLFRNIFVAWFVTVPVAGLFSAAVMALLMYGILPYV
The assay is described as follows: 33P-phosphate uptake in CHO cells over-expressing human PiT2. Type of assay: cell-based. The method, then: as §1, with “The final phosphate concentration was 2.5 µM and the final DMSO concentration was 1%. Following a 60‐min incubation at room temperature, an equal volume of assay buffer containing 400 µM phloretin was added to stop ^33P‐phosphate uptake.” left out
Similar methods were used to measure the effects of LY3358966 on other transporters of interest, except that constitutive promoters were used to generate CHO cells over‐expressing human PiT1 and PiT2. The ^33P‐phosphate uptake was measured after 45 min at 20°C for the NPT2a, NPT2c, PiT1, and PiT2 assays. […]

The term IC50 denotes the concentration needed to halve the response being measured. Low values mean greater potency in that assay, high ones weaker potency in that assay. `CC1(C)CN(C(=O)NCCCCO)CCN1Cc1cccc(C(=O)Nc2sc3c(c2C(=O)Nc2cc(F)c(CCc4ccc(C(=O)O)cc4)c(F)c2)CCCC3)c1` [LY3358966, 4‐[2‐[2,6‐difluoro‐4‐[[2‐[[3‐[[4‐(4‐hydroxybutylcarbamoyl)‐2,2‐dimethyl‐piperazin‐1‐yl]methyl]benzoyl]amino]‐4,5,6,7‐tetrahydrobenzothiophene‐3‐carbonyl]amino]phenyl]ethyl]benzoic acid]: the half-maximal inhibitory concentration (IC50) is 43.9 nM against mouse NPT2b and greater than 100000 nM on Human PiT2 (45 min at 20°C). At Human PiT2 (ratio of IC50 of human PiT2 assay to that of human NPT2b assay), the Selectivity is listed as greater than 3086.
